From ChEMBL document CHEMBL5356974, “Development of MPS1 Inhibitors: Recent Advances and Perspectives” (J Med Chem, 2023)

Legend:
[1] = target: T1, Dual specificity protein kinase TTK (Homo sapiens) (UniProt P33981); settings: dose 100.0 nM
T1 sequence (whole entry): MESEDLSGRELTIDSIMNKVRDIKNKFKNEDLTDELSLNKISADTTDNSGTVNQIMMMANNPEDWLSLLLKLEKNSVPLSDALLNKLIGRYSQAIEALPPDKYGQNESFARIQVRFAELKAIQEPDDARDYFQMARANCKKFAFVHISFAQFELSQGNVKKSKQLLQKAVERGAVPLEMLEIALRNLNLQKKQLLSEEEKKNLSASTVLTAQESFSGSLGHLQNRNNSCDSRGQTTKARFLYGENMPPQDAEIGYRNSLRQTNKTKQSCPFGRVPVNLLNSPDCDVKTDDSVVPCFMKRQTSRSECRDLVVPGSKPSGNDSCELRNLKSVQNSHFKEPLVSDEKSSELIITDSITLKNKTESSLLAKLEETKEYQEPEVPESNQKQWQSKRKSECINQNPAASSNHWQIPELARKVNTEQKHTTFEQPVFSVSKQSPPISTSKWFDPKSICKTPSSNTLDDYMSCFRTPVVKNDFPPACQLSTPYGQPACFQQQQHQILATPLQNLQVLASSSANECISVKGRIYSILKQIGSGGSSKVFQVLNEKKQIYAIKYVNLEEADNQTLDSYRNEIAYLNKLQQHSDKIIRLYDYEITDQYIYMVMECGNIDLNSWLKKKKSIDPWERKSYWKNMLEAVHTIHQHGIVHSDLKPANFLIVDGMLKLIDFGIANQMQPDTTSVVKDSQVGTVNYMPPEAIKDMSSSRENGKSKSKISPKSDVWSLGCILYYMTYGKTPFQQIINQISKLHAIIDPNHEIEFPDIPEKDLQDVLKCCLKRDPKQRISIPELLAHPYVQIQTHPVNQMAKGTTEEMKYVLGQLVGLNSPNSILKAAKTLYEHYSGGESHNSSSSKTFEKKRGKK

[2] = target: T2, Dual specificity protein kinase TTK (Homo sapiens, UniProt P33981); experiment: Inhibition of full-length MPS1 (unknown origin) using fluorescein-labeled MBP-derived peptide as substrate preincubated for 1 hr followed by substrate addition measured after 2 hrs in presence of ATP by FP assay
T2 sequence (P33981 whole entry): T1 sequence (whole entry)

[3] = target: Mitogen-activated protein kinase 9 (Homo sapiens) (UniProt P45984); experiment: Inhibition of JNK2 (unknown origin) relative to control; settings: concentration not given here
Sequence of Mitogen-activated protein kinase 9 (Homo sapiens) (P45984 whole entry, looked up): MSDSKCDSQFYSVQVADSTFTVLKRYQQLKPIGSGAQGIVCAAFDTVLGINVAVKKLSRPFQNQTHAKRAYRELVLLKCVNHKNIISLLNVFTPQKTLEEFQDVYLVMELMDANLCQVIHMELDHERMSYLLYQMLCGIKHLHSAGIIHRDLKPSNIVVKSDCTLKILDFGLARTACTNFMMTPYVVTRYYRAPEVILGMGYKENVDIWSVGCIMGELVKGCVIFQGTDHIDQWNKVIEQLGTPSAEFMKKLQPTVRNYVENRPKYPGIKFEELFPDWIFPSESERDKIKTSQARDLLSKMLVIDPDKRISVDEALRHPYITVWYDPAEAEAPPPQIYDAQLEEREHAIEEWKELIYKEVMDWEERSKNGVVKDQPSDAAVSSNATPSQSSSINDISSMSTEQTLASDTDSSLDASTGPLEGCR

[4] = target: T3, Serine/threonine-protein kinase NLK (Homo sapiens) (UniProt Q9UBE8); experiment: Inhibition of NLK (unknown origin) relative to control; settings: concentration not given here
T3 sequence (whole entry): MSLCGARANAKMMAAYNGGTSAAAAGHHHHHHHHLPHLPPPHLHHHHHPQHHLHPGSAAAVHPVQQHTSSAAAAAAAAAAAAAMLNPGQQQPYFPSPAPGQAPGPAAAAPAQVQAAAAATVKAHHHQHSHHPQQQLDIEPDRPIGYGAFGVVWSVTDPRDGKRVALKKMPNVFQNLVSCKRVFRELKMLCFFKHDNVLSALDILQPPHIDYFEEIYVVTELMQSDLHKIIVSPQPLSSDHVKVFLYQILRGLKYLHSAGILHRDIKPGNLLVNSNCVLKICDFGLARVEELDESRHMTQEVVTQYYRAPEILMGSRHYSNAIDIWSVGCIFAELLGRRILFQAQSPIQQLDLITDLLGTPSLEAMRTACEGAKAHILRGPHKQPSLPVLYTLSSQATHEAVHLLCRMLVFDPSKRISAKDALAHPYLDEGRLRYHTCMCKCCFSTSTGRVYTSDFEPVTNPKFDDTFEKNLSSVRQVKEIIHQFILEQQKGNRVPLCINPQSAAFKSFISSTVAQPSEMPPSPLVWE

[5] = target: Mitogen-activated protein kinase 10 (Homo sapiens) (UniProt P53779); experiment: Inhibition of JNK3 (unknown origin) relative to control; settings: concentration not given here
Sequence of Mitogen-activated protein kinase 10 (Homo sapiens) (P53779 whole entry): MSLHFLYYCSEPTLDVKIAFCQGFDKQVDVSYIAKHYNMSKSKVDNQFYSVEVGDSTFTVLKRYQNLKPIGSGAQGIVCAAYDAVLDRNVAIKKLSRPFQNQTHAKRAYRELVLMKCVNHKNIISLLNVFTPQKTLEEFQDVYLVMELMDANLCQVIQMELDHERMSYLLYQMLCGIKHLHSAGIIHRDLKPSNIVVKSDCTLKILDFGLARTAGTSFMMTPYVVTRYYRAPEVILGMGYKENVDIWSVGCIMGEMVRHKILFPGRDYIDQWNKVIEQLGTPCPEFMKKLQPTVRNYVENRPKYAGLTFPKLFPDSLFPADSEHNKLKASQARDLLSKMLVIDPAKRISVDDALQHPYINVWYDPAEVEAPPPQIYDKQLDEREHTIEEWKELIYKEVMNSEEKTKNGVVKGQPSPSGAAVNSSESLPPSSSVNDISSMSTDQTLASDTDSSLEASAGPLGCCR

Structure (SMILES) | inhibition [1] | IC50 [2] | inhibition [3] | inhibition [4] | inhibition [5]
CCc1nn(CCOCCOC)c(CC)c1NC(=O)c1ccn2c1CCc1cnc(Nc3ccc(N4CCN(C)CC4)cc3OC)nc1-2 | > 90% |  |  |  | 
CCc1n[nH]c(CC)c1NC(=O)c1ccn2c1CCc1cnc(Nc3ccc(N4CCN(C)CC4)cc3OC)nc1-2 | > 90% | 1.2 nM |  |  | 
Cn1cc(-c2cc3cnc(Nc4ccc(-c5cncn5C)cc4Cl)cc3n2C(=O)OC(C)(C)C)cn1 |  |  | 80% | 80% | 80%
CN1CCC(c2ccc(Nc3ncc4c(n3)-n3ccc(C(N)=O)c3CC4)cc2)CC1 |  | 7.6 nM |  |  | 
